From patent US20020192637A1, “Biological Sensor” (priority 1999, published 2002)

Assays:
[1] = system: hippocampal neuronal cell cultures; assay: Acute addition of antimicrobial agents to spontaneously active hippocampal neuronal cultures on MMEP plates; format: cell-based, rat; details: for effect on spontaneous activity (firing) of the monitored channel: acute addition (10 μl) at the concentration used routinely in tissue culture, hippocampal cultures grown 4 weeks antibiotic-free; for effect on spontaneous activity at up to 10 times the normal concentration/volume: sequential 10 μl additions up to 10 times normal; for effect of further sequential 10 μl additions: subsequent 10 μl aliquots (penicillin G up to 100 μl at approx. 10 second intervals)
Method: Acute administration of antibiotic compounds to neuronal cell cultures: the majority of experiments involved the investigation of acute addition of a range of antibiotics to hippocampal cultures grown in antibiotic-free Neurobasal medium for 4 weeks. In each case MMEP's were screened for activity and a strong, reliable channel was selected for experimentation. Each antibiotic was tested on at least 3 individual cultures and the antibiotic addition was started at the concentration used routinely in tissue culture studies. As controls, the anti-fungal agents Nystatin and Amphotericin B (Fungizone), and the anti-mycoplasma (PPLO) agent Tylosin were also tested. In addition, the agent in which the antibiotic compound was dissolved (usually deionised water or 0.9% sodium chloride), as well as normal medium, were also tested for any effects on neuronal activity. Particular interest was paid to the effects of penicillin G, streptomycin and penicillin/streptomycin mixtures. These are routinely used in tissue culture medium and therefore any possible toxic effects are particularly relevant.

P19 cell line = assay: Differentiation of P19 cell line with retinoic acid; format: cell-based, mouse; details: retinoic acid in differentiation medium
Method: Differentiation: MEM+0.1% FBS+L-Glutamine (2 mM)+Non-essential Amino acids (1×)+30 uM retinoic acid
Neurobasal+B27+Non-essential Amino acids (1×)+L-Glutamine (2 mM)+30 uM retinoic acid
Differentiation experiments have been performed on the P19 cell line using retinoic acid. […] However, only 60-70% of the cells responded to the stimulus, such that over an extended period the non-neuronal cells proliferate vigorously and kill the neuronal cells. The use of serum-free medium has overcome this problem but cultures appear unhealthy after a period of 2 weeks.

guinea pigs = details: high doses, administered chronically to guinea pigs; cited from earlier work
hippocampal cultures = assay: Chronic administration of antibiotics to hippocampal cultures grown over 4 weeks, neuronal network activity; format: cell-based, rat
Method: Effects of antibiotics on neuronal network activity: chronic administration of antibiotics to neuronal cell cultures. The chronic effect of antibiotics on neuronal network activity was investigated. Experiments were performed on hippocampal cultures grown in parallel, from the same cell preparation, in the presence or absence of penicillin-streptomycin or gentamycin at the recommended doses.

## CC1(C)S[C@@H]2[C@H](NC(=O)Cc3ccccc3)C(=O)N2[C@H]1C(=O)O [Penicillin G]
[1]
  effect on spontaneous activity (firing) of the monitored channel: immediate increase in the firing rate
  effect on spontaneous activity at up to 10 times the normal concentration/volume: initial acceleration of the firing rate, with an accompanied reduction in spike amplitude
  effect of further sequential 10 μl additions: further decrease in the amplitude with eventual slowing of the firing rate
[1]; acute addition of 10 μl
  effect on spike amplitude: small associated decrease in the amplitude

## Polymyxin ‘B’
[1]
  effect on spontaneous activity (firing) of the monitored channel: inhibition of activity

## CC1=C(/C=C/C(C)=C/C=C/C(C)=C/C(=O)O)C(C)(C)CCC1 [retinoic acid]
P19 cell line
  proportion of cells that responded to the stimulus: 60-70%

## Gentamicin
Guinea pigs
  effect on neuronal cytoarchitecture: major structural changes in neuronal cytoarchitecture
Hippocampal cultures; cultures grown for several weeks in the presence of the antibiotic
  long-term effect indicated by poor frequency of activity detection: toxic effect
Hippocampal cultures; recommended doses, grown over a 4-week period
  effect on neuronal network activity after chronic presence: almost complete cessation of activity
[1]
  effect on spontaneous activity (firing) of the monitored channel: cessation of neuronal activity
[1]; complete medium change within the MMEP culture apparatus
  reversibility of inhibition: reversed by a complete medium change

## [H]/N=C(/N)N[C@H]1[C@H](O)[C@@H](O)[C@H](O[C@@H]2O[C@@H](C)[C@](O)(C=O)[C@H]2O[C@@H]2O[C@@H](CO)[C@H](O)[C@@H](O)[C@@H]2NC)[C@@H](N/C(N)=N\[H])[C@@H]1O [Streptomycin]
[1]; 10 μl, particularly strong (>500(V) channel, without change of medium)
  silence before activity begins to recover: approximately 30 seconds
[1]
  effect on spontaneous activity (firing) of the monitored channel: immediate cessation of firing
  effect of further sequential 10 μl additions: immediate interruption of activity
[1]; weak activity (<500 μV), single 10 μl addition
  effect on channel with weak activity: sufficient to inhibit activity for several minutes

## C[C@@H]1[C@H](O)[C@@H](C)/C=C/C=C/CC/C=C/C=C/C=C/C=C/C(O[C@H]2O[C@H](C)[C@@H](O)[C@H](N)[C@@H]2O)CC2O[C@](O)(CC(O)C(O)CCC(O)CC(O)CC(O)CC(=O)O[C@H]1C)CC(O)C2C(=O)O (stereo partly drawn) [Nystatin]
[1]
  effect on spontaneous activity at up to 10 times the normal concentration/volume: No inhibition of activity

## C[C@@H]1[C@H](O)[C@@H](C)/C=C/C=C/C=C/C=C/C=C/C=C/C=C/[C@H](O[C@@H]2O[C@H](C)[C@@H](O)[C@H](N)[C@@H]2O)C[C@@H]2O[C@](O)(C[C@@H](O)C[C@@H](O)[C@H](O)CC[C@@H](O)C[C@@H](O)CC(=O)O[C@H]1C)C[C@H](O)[C@H]2C(=O)O [amphotericin B, Amphotericin B]
[1]
  effect on spontaneous activity at up to 10 times the normal concentration/volume: No inhibition of activity

## CC[C@H]1OC(=O)C[C@@H](O)[C@H](C)[C@@H](O[C@@H]2O[C@H](C)[C@@H](O[C@H]3C[C@@](C)(O)[C@@H](O)[C@H](C)O3)[C@H](N(C)C)[C@H]2O)[C@@H](CC=O)C[C@@H](C)C(=O)/C=C/C(C)=C/[C@@H]1CO[C@@H]1O[C@H](C)[C@@H](O)[C@@H](OC)[C@H]1OC [Tylosin]
[1]
  effect on spontaneous activity at up to 10 times the normal concentration/volume: No inhibition of activity
